US20220339143A1, “TAK-925 FOR USE IN TREATING NARCOLEPSY” (Takeda Pharmaceutical Company Limited, priority 2019, published 2022)

Test system: patients with narcolepsy type 1 (NT1)
Experiment: Subjective daytime sleepiness as assessed by Karolinska Sleepiness Scale (KSS), single dose (Cohorts 5, 6, 7)
Format: in vivo, human
Method: Daytime sleepiness as assessed by the Karolinska Sleepiness Scale (KSS).
Daytime sleepiness as assessed by KSS at predose and hourly until 11 hours after the start of infusion is presented in Table 13 as summary, in Table 14 as ANOVA and in Table 15 as ANOVA of change from baseline.

[1] = Cmpd A 5 mg (N = 6), 9 hr after start of infusion
[2] = Cmpd A 5 mg (N = 6), 10 hr after start of infusion
[3] = Cmpd A 5 mg (N = 6), 11 hr after start of infusion
[4] = Cmpd A 11.2 mg (N = 4), 1 hr after start of infusion
[5] = Cmpd A 11.2 mg (N = 4), 2 hr after start of infusion
[6] = Cmpd A 11.2 mg (N = 4), 3 hr after start of infusion
[7] = Cmpd A 11.2 mg (N = 4), 4 hr after start of infusion
[8] = Cmpd A 11.2 mg (N = 4), 5 hr after start of infusion
[9] = Cmpd A 11.2 mg (N = 4), 6 hr after start of infusion
[10] = Cmpd A 11.2 mg (N = 4), 7 hr after start of infusion
[11] = Cmpd A 11.2 mg (N = 4), 8 hr after start of infusion
[12] = Cmpd A 11.2 mg (N = 4), 9 hr after start of infusion
[13] = Cmpd A 11.2 mg (N = 4), 10 hr after start of infusion
[14] = Cmpd A 11.2 mg (N = 4), 11 hr after start of infusion
[15] = Cmpd A 44.8 mg (N = 4), 1 hr after start of infusion
[16] = Cmpd A 44.8 mg (N = 4), 2 hr after start of infusion
[17] = Cmpd A 44.8 mg (N = 4), 3 hr after start of infusion
[18] = Cmpd A 44.8 mg (N = 4), 4 hr after start of infusion
[19] = Cmpd A 44.8 mg (N = 4), 5 hr after start of infusion
[20] = Cmpd A 44.8 mg (N = 4), 6 hr after start of infusion
[21] = Cmpd A 44.8 mg (N = 4), 7 hr after start of infusion
[22] = Cmpd A 44.8 mg (N = 4), 8 hr after start of infusion
[23] = Cmpd A 44.8 mg (N = 4), 9 hr after start of infusion
[24] = Cmpd A 44.8 mg (N = 4), 10 hr after start of infusion
[25] = Cmpd A 44.8 mg (N = 4), 11 hr after start of infusion

COC(=O)N1CCC[C@H](NS(C)(=O)=O)[C@@H]1CO[C@H]1CC[C@@H](c2ccccc2)CC1 [Compound A, methyl (2R,3S)-3-((methylsulfonyl)amino)-2-(((cis-4-phenylcyclohexyl)oxy)methyl)piperidine-1-carboxylate]
KSS Observed Value at Visit, Median (Cmpd A 5 mg (N = 6), 8 hr after start of infusion): 3.0
KSS Change from Baseline, Mean [1]: −2.5
KSS Change from Baseline, Median [1]: −2.5
KSS Observed Value at Visit, Mean [1]: 2.5
KSS Observed Value at Visit, Median [1]: 2.5
KSS Change from Baseline, Mean [2]: −2.3
KSS Change from Baseline, Median [2]: −2.5
KSS Observed Value at Visit, Mean [2]: 2.7
KSS Observed Value at Visit, Median [2]: 2.0
KSS Change from Baseline, Mean [3]: −1.7
KSS Change from Baseline, Median [3]: −1.5
KSS Observed Value at Visit, Mean [3]: 3.3
KSS Observed Value at Visit, Median [3]: 3.0
KSS Change from Baseline, Mean [4]: −2.0
KSS Change from Baseline, Median [4]: −1.0
KSS Observed Value at Visit, Mean [4]: 1.8
KSS Observed Value at Visit, Median [4]: 1.5
KSS Change from Baseline, Mean [5]: −1.5
KSS Change from Baseline, Median [5]: −1.0
KSS Observed Value at Visit, Mean [5]: 2.3
KSS Observed Value at Visit, Median [5]: 2.0
KSS Change from Baseline, Mean [6]: −1.3
KSS Change from Baseline, Median [6]: −1.0
KSS Observed Value at Visit, Mean [6]: 2.5
KSS Observed Value at Visit, Median [6]: 3.0
KSS Change from Baseline, Mean [7]: −1.8
KSS Change from Baseline, Median [7]: −1.0
KSS Observed Value at Visit, Mean [7]: 2.0
KSS Observed Value at Visit, Median [7]: 2.0
KSS Change from Baseline, Mean [8]: −1.8
KSS Change from Baseline, Median [8]: −1.0
KSS Observed Value at Visit, Mean [8]: 2.0
KSS Observed Value at Visit, Median [8]: 2.0
KSS Change from Baseline, Mean [9]: −1.5
KSS Change from Baseline, Median [9]: −0.5
KSS Observed Value at Visit, Mean [9]: 2.3
KSS Observed Value at Visit, Median [9]: 2.0
KSS Change from Baseline, Mean [10]: −1.0
KSS Change from Baseline, Median [10]: −0.5
KSS Observed Value at Visit, Mean [10]: 2.8
KSS Observed Value at Visit, Median [10]: 3.0
KSS Change from Baseline, Mean [11]: −1.5
KSS Change from Baseline, Median [11]: −1.0
KSS Observed Value at Visit, Mean [11]: 2.3
KSS Observed Value at Visit, Median [11]: 2.5
KSS Change from Baseline, Mean [12]: −1.3
KSS Change from Baseline, Median [12]: −0.5
KSS Observed Value at Visit, Mean [12]: 2.5
KSS Observed Value at Visit, Median [12]: 2.5
KSS Change from Baseline, Mean [13]: 1.3
KSS Change from Baseline, Median [13]: 2.5
KSS Observed Value at Visit, Mean [13]: 5.0
KSS Observed Value at Visit, Median [13]: 5.5
KSS Change from Baseline, Mean [14]: 0.5
KSS Change from Baseline, Median [14]: 1.0
KSS Observed Value at Visit, Mean [14]: 4.3
KSS Observed Value at Visit, Median [14]: 4.0
KSS Change from Baseline, Mean [15]: −1.5
KSS Change from Baseline, Median [15]: −1.5
KSS Observed Value at Visit, Mean [15]: 1.3
KSS Observed Value at Visit, Median [15]: 1.0
KSS Change from Baseline, Mean [16]: −1.5
KSS Change from Baseline, Median [16]: −2.0
KSS Observed Value at Visit, Mean [16]: 1.3
KSS Observed Value at Visit, Median [16]: 1.0
KSS Change from Baseline, Mean [17]: −1.0
KSS Change from Baseline, Median [17]: −1.0
KSS Observed Value at Visit, Mean [17]: 1.8
KSS Observed Value at Visit, Median [17]: 1.5
KSS Change from Baseline, Mean [18]: −1.0
KSS Change from Baseline, Median [18]: −1.0
KSS Observed Value at Visit, Mean [18]: 1.8
KSS Observed Value at Visit, Median [18]: 1.5
KSS Change from Baseline, Mean [19]: −1.5
KSS Change from Baseline, Median [19]: −1.5
KSS Observed Value at Visit, Mean [19]: 1.3
KSS Observed Value at Visit, Median [19]: 1.0
KSS Change from Baseline, Mean [20]: −1.3
KSS Change from Baseline, Median [20]: −1.0
KSS Observed Value at Visit, Mean [20]: 1.5
KSS Observed Value at Visit, Median [20]: 1.5
KSS Change from Baseline, Mean [21]: −1.3
KSS Change from Baseline, Median [21]: −1.0
KSS Observed Value at Visit, Mean [21]: 1.5
KSS Observed Value at Visit, Median [21]: 1.5
KSS Change from Baseline, Mean [22]: −0.8
KSS Change from Baseline, Median [22]: −1.0
KSS Observed Value at Visit, Mean [22]: 2.0
KSS Observed Value at Visit, Median [22]: 2.0
KSS Change from Baseline, Mean [23]: −1.3
KSS Change from Baseline, Median [23]: −1.0
KSS Observed Value at Visit, Mean [23]: 1.5
KSS Observed Value at Visit, Median [23]: 1.0
KSS Change from Baseline, Mean [24]: −1.5
KSS Change from Baseline, Median [24]: −1.5
KSS Observed Value at Visit, Mean [24]: 1.3
KSS Observed Value at Visit, Median [24]: 1.0
KSS Change from Baseline, Mean [25]: −1.3
KSS Change from Baseline, Median [25]: −1.0
KSS Observed Value at Visit, Mean [25]: 1.5
KSS Observed Value at Visit, Median [25]: 1.5
KSS ratings vs pooled placebo group (all time points over 9 hour infusion period): lower (greater alertness)
mean reduction in KSS from baseline vs placebo (single dose, NT1): greater for Compound A vs placebo
